Results published in patent US12564631B2, “Phytosphingosine derivatives as adjuvants in immune stimulation” (Helmholtz-Zentrum für Infektionsforschung GmbH, priority 2020, dated 2026).

Experiments:
[1] = tested on: Antigen-specific multifunctional CD4+ T cells; assay: Antigen-specific multifunctional T cells (intracellular cytokine staining, flow cytometry) in spleen cells of immunized mice; assay type: in vivo, BALB/c mice; conditions: adjuvanted Ovalbumin, CD4+ and CD8+ T cell populations
Method: FIG. 8: Antigen-specific multifunctional CD4+ T cells. (A) Groups of 3 BALB/c mice were immunized intramuscularly with PBS (control) or with three doses (14 days apart) of Ovalbumin (30 μg), alone or adjuvanted with c-di-AMP or aßGalCerMPEG or IPB 2033-2044 (15 μg). At 14 days after the second immunization, spleen cells were harvested, restimulated with Ovalbumin, intracellularly stained for double positive Th cytokines (IFN-γ, IL-2, TNF-α, IL-4 and IL-17), and analyzed by flow cytometry. […] At 14 days after the second immunization, spleen cells were harvested, restimulated with Ovalbumin, intracellularly stained for triple positive Th cytokines (IFN-γ, IL-2, TNF-α, IL-4 and IL-17), and analyzed by flow cytometry.
In order to characterize more accurately the cellular immune response, the production of intracellular cytokines was measured in CD4+ and CD8+ T cells. […]
Therefore, mice were immunized to assess the in vivo performance of CDA in an active vaccination setting. To assess vaccination effectivity, the frequencies of cytokine producers among the CD4+ and CD8+ T cell populations were evaluated by intracellular cytokine staining and flow cytometry. […] Thus, the frequency of T cells producing single cytokines or combinations (positive events/million) was analyzed by flow cytometry.

[2] = Ebensen et al J. Immunol. 179 (2007) 2065; cited from earlier work

Structure (SMILES) | frequency of triple, double and single cytokine producers among T cells [1] | solubility [2]
Nc1ncnc2c1ncn2[C@@H]1O[C@@H]2COP(=O)(O)O[C@H]3[C@@H](O)[C@H](n4cnc5c(N)ncnc54)O[C@@H]3COP(=O)(O)O[C@H]2[C@H]1O [CDA, c-di-AMP] | increased the frequency of triple, double and single cytokine producers | –
CCCCCCCCCCCCCCCCCCCCCCCCCC(=O)N[C@@H](CO[C@H]1O[C@H](CO)[C@H](O)[C@H](O)[C@H]1O)[C@H](O)[C@H](O)CCCCCCCCCCCCCC [KRN7000] | – | low solubility
